Laboratory results from US6596534B1, “Utilization of osteocalcin promoter to deliver therapeutic genes to tumors” (priority 1997, dated 2003).
“Also recorded” adds a separate entry of the source.

Experiments:
[1] = system: ROS 17/2.8 osteosarcoma lung metastases; assay: Treatment of osteosarcoma pulmonary metastasis by intravenous Ad-OC-TK; assay type: in vivo, nude mice
Description: Athymic Balb/c (nu/nu) mice at 5 to 6 weeks were purchased from Harlan Co. (Houston, Tex.). […] All mice were maintained in facilities approved by the American Association of Accreditation of Laboratory Animal Care, and all animal studies were conducted in accordance with the principles and procedures outlined in the NIH Guide for the Care and Use of Laboratory Animals.
The osteosarcoma pulmonary metastasis model was established as described above. Ad-OC-TK (5×10^8 PFU per 50 μl) was injected via tail vein twice, at day 7 and 14, after ROS 17/2.8 injection. Daily acyclovir intra peritoneal administration (40 mg/kg body weight) started at day 6 after ROS 17/2.8 tumor cell inoculation and continued for 15 days. All animals were sacrificed and examined on day 25. The lungs were removed, photographed, and weighed, and the metastatic deposits were observed under a low-powered (20×) stereo microscope. Histomorphologic observations were made in all specimens according to a standard procedure. Student's t-test was employed to analyze the statistical significance of differences among control and treatment groups.
We next tested the therapeutic efficacy of intravenous Ad-OC-TK gene therapy for the treatment of osteosarcoma lung metastases. Twenty mice bearing ROS 17/2.8 tumor lung metastases were treated with either PBS (control), Ad-OC-TK alone, ACV alone, or Ad-OC-TK plus ACV. Animals were sacrificed and analyzed on day 25 after ROS 17/2.8 inoculation. Tumor nodules on the lung surface were counted with stereo-optic magnification and the lung wet weights were measured, and all the lung specimens were subjected to histological analysis.

[2] = system: ROS 17/2.8 osteosarcoma lung metastases; assay: Long term survival study of mice bearing osteosarcoma lung metastases; assay type: in vivo, nude mice; settings: generalized Wilcoxon test, 0.005<p<0.01 for combination
Description: The end-points of the long term survival study are: animal death or sacrifice upon request by animal care takers because of excessive tumor burden causing animal distress, lethargy, ruffled fur or weight loss. The survival rate of the animals was analyzed by the Kaplan-Meier survival curve. The statistical significance of this study was analyzed with the generalized Wilcoxon test.^18
Twenty-six mice were inoculated with ROS 17/2.8 tumor cells as described above. Animals received either PBS, Ad-OC-TK alone, ACV alone, or Ad-OC-TK plus ACV and survivals were compared. […] Mean survival time was 27.1±2.9 days for the control animals and 36.6±5.8 days for the Ad-OC-TK plus ACV-treated animals (FIG. 6).
FIG. 6. Survival of animals receiving Ad-OC-TK/ACV treatment. Animals bearing osteosarcoma lung metastases were treated with PBS (6 animals), ACV (6 animals), Ad-OC-TK (6 animals), or Ad-OC-TK/ACV (8 animals) as described above. The survival study end-points were animal death or sacrifice per request by animal care personnel for distress, as evidenced by lethargy, ruffled fur or weight loss.

For `Nc1nc2c(ncn2COCCO)c(=O)[nH]1` [ACV, acyclovir], the “size of pulmonary metastases (histology)” value ([1]; day 25, compared with PBS-treated specimens) was “No statistical difference; also recorded: massive pulmonary metastatic tumor nodules”, the “number of metastatic tumor nodules on the lung surface” value ([1]; day 25 after ROS 17/2.8 inoculation, Ad-OC-TK 5×10^8 PFU tail vein day 7 and 14, ACV 40 mg/kg i.p. daily for 15 days, p<0.0001 for combination vs PBS) was “No statistical difference; also recorded: no significant differences” and the lung wet weight ([1]; day 25 after ROS 17/2.8 inoculation, same regimen, p=0.0005 for combination vs PBS) was “no significant differences”. The “survival compared with controls” value [2] was “No obvious difference in survival”.
